We go through 32 compounds from patent US9932314B2, “Pyrazole compounds and their use as T-type calcium channel blockers” (IDORSIA PHARMACEUTICALS LTD, priority 2015, dated 2018).

Structures are written as SMILES.

For orientation: IC50 means the concentration needed to halve the response being measured.

For the experiment, the target named is T1, voltage-dependent T-type calcium channel subunit alpha-1G (Cav3.2) (Homo sapiens, UniProt O95180).
T1 construct: expressed in transfected cells; host or cells: HEK293
T1 sequence (O95180 whole entry): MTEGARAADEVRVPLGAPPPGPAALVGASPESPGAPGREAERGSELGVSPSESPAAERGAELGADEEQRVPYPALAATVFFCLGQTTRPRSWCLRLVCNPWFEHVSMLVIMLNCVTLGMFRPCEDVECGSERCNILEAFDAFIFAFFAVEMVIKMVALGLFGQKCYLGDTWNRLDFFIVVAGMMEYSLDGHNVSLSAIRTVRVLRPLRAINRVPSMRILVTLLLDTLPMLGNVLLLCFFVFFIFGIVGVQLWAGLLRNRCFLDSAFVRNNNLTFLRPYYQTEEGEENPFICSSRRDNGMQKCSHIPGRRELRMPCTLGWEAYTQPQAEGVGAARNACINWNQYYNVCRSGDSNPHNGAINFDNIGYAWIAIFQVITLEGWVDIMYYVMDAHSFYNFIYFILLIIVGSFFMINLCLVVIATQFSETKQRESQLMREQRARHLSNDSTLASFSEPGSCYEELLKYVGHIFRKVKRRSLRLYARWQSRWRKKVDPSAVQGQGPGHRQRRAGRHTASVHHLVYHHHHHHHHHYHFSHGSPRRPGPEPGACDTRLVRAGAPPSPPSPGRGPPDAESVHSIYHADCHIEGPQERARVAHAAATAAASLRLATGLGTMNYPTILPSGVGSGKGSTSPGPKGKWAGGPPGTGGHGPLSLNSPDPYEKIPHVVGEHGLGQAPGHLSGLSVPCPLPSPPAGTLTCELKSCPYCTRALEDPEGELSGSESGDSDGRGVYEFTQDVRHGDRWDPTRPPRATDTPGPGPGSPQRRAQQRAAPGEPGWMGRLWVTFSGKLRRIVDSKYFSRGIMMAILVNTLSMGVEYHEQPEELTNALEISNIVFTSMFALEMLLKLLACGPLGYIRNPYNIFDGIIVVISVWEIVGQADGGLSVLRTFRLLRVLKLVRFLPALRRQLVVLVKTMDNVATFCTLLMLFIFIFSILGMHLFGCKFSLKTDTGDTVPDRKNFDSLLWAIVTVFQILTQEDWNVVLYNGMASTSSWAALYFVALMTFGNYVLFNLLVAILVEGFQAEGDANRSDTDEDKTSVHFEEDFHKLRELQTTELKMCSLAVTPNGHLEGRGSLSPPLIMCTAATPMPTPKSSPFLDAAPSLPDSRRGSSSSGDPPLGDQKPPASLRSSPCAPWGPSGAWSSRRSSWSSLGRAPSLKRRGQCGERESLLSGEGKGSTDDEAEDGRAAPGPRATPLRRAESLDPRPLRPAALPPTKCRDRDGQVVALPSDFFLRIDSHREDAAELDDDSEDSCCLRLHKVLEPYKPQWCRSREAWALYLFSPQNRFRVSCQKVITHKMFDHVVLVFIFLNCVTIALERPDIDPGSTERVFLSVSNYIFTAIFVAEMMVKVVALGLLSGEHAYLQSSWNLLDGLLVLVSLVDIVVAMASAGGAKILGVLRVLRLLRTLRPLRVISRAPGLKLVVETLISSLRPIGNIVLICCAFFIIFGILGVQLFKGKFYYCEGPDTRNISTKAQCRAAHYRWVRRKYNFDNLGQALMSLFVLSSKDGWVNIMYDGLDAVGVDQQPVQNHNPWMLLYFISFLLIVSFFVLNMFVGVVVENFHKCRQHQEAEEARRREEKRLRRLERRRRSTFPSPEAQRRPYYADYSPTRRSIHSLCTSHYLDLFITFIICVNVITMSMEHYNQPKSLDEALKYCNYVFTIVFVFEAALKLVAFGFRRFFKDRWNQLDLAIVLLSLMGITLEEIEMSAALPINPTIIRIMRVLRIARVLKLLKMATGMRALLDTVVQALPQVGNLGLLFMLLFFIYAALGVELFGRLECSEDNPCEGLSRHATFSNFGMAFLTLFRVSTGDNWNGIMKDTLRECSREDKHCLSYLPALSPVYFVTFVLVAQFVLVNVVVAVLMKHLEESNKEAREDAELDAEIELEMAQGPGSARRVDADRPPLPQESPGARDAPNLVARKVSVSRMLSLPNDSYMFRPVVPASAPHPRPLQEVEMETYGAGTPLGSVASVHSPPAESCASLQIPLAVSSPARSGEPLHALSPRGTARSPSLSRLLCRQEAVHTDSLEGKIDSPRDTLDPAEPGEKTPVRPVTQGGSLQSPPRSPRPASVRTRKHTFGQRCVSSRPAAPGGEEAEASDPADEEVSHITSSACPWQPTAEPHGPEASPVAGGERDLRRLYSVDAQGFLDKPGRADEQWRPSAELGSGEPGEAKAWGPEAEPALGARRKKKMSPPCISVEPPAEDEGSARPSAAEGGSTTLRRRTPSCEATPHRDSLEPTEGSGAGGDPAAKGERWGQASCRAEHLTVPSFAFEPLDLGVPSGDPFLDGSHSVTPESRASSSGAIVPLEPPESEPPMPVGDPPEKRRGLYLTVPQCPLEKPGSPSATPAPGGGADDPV
As to the kind of experiment: FLIPR calcium flux assay, HEK293 cells recombinantly expressing Cav3.2. The experiment is classed as cell-based. Conditions: Cav3.2-channel, Fluo-4-AM, 3 min incubation, stimulation with 10 mM CaCl2. The method, then: In Vitro Methods—Measurement of Calcium Channel Flux by Means of FLIPR Assays.
HEK293 cells recombinantly expressing either voltage-dependent T-type calcium channel subunit […] (Cav3.2) or voltage-dependent L-type calcium channel subunit alpha-1C (Cav1.2) are assayed for calcium flux using the calcium indicator dye Fluo-4-AM (Molecular Devices) and FLIPR technology (Fluorometric Imaging Plate Reader, Molecular Devices) (Xie X, Van Deusen A L, Vitko I, Babu D A, Davies L A, Huynh N, Cheng H, Yang N, Barrett P Q, Perez-Reyes E. Validation of high throughput screening assays against three subtypes of Ca(v)3 T-type channels using molecular and pharmacologic approaches. Assay and Drug Development Technologies 2007, 5(2), 191-203). The HEK293 cells recombinantly expressing Cav3.2 are maintained in DMEM growth medium (Life Technologies) supplemented with 10% Fetal Bovine Serum (FBS), 100 U/ml penicilin (Life Technologies), 100 μg/ml streptomycin (Life Technologies) and 1 mg/ml G418 (Life Technologies). HEK293 cells recombinantly expressing Cav1.2 are maintained in DMEM growth medium (Life technologies) supplemented with 10% FBS, 0.1 mg/ml G418 (Life Technologies), 0.1 mg/ml hygromycin (Life Technologies) and 40 ug/ml zeocin (Life Technologies).
The seeded plates are incubated overnight at 37° C.
The cells are then washed three times with assay buffer (HBSS 1×; 0.375 g/L NaHCO3; 20 mM Hepes; 1% FBS; pH 7.4) and allowed to rest in 50 μl of wash buffer for 30 minutes.
Stock solutions of test compounds are prepared to a concentration of 10 mM in DMSO. For the Cav3.2 assay, serial dilutions of the compounds are prepared in TEAC buffer (100 mM tetraethylammonium chloride; 20 mM Hepes; 2.5 mM CaCl2; 5 mM KCl; 1 mM MgCl2; 1% FBS; pH 7.2), for the Cav1.2 assay serial dilutions are prepared in assay buffer. […] The compounds are incubated with the cells for 3 minutes and Ca2+ entry is stimulated by adding either CaCl2 to a final concentration of 10 mM (Cav3.2 assay) or by adding KCl to a final concentration of 20 mM (Cav1.2 assay). The kinetics of fluorescence increase are recorded for every well and the area under the fluorescence trace for every compound concentration is used to generate inhibition curves using non-linear regression sigmoidal concentration-response curve analysis with in-house software.
In general terms: A change in cytosolic calcium serves as a functional read-out for many receptors and channels.
In the case of `N#Cc1ccc(Cn2ccc(NC(=O)Cc3ccc(N4CC[C@@H](F)C4)cc3)n2)cc1` [Example 69, N-[1-(4-Cyano-benzyl)-1H-pyrazol-3-yl]-2-[4-((R)-3-fluoro-pyrrolidin-1-yl)-phenyl]-acetamide], the IC50 came out at 16 nM. Turning to `O=C(Cc1ccc(N2CC[C@@H](F)C2)cc1)Nc1ccn(Cc2ccc(F)cc2)n1` [Example 70, N-[1-(4-Fluoro-benzyl)-1H-pyrazol-3-yl]-2-[4-((R)-3-fluoro-pyrrolidin-1-yl)-phenyl]-acetamide], the IC50 came to 11 nM. To `CC(C)c1ccc(CC(=O)Nc2ccn(Cc3ccc(C#N)cn3)n2)cc1` [Example 71, N-[1-(5-Cyano-pyridin-2-ylmethyl)-1H-pyrazol-3-yl]-2-(4-isopropyl-phenyl)-acetamide] belongs 60 nM; to `N#Cc1ccc(Cn2ccc(NC(=O)Cc3ccc(N4CC(F)C4)cc3)n2)cc1` [Example 72, N-[1-(4-Cyano-benzyl)-1H-pyrazol-3-yl]-2-[4-(3-fluoro-azetidin-l-yl)-phenyl]-acetamide], 46 nM; to `O=C(Cc1ccc(N2CC(F)C2)cc1)Nc1ccn(Cc2ccc(F)cc2)n1` [Example 73, 2-[4-(3-Fluoro-azetidin-1-yl)-phenyl]-N-[1-(4-fluoro-benzyl)-1H-pyrazol-3-yl]-acetamide], 7.9 nM. To `N#Cc1ccc(Cn2ccc(NC(=O)Cc3ccc(N4CC[C@H](F)C4)cc3)n2)cc1` [Example 74, N-[1-(4-Cyano-benzyl)-1H-pyrazol-3-yl]-2-[4-((S)-3-fluoro-pyrrolidin-1-yl)-phenyl]-acetamide] belongs 14 nM; to `O=C(Cc1ccc(N2CC[C@H](F)C2)cc1)Nc1ccn(Cc2ccc(F)cc2)n1` [Example 75, N-[1-(4-Fluoro-benzyl)-1H-pyrazol-3-yl]-2-[4-((S)-3-fluoro-pyrrolidin-1-yl)-phenyl]-acetamide], 5.2 nM. To `N#Cc1ccc(Cn2ccc(NC(=O)Cc3ccc(N4CCC(F)(F)C4)cc3)n2)cc1` [Example 76, N-[1-(4-Cyano-benzyl)-1H-pyrazol-3-yl]-2-[4-(3,3-difluoro-pyrrolidin-1-yl)-phenyl]-acetamide] belongs 6.1 nM; to `O=C(Cc1ccc(N2CCC(F)(F)C2)cc1)Nc1ccn(Cc2ccc(F)cc2)n1` [Example 77, 2-[4-(3,3-Difluoro-pyrrolidin-1-yl)-phenyl]-N-[1-(4-fluoro-benzyl)-1H-pyrazol-3-yl]-acetamide], 9.1 nM. Turning to `N#Cc1ccc(Cn2ccc(NC(=O)Cc3ccc(C4CC4)cc3)n2)nc1` [Example 78, N-[1-(5-Cyano-pyridin-2-ylmethyl)-1H-pyrazol-3-yl]-2-(4-cyclopropyl-phenyl)-acetamide], the IC50 is 275 nM.

Regarding `Cc1nccnc1-c1ccc(CC(=O)Nc2ccn(Cc3ccc(F)cc3)n2)cc1` [Example 80, N-[1-(4-Fluoro-benzyl)-1H-pyrazol-3-yl]-2-[4-(3-methyl-pyrazin-2-yl)-phenyl]-acetamide], the IC50 stood at 92 nM. In the case of `O=C(Cc1ccc(-c2cnccn2)cc1)Nc1ccn(Cc2ccc(F)cc2)n1` [Example 81, N-[1-(4-Fluoro-benzyl)-1H-pyrazol-3-yl]-2-(4-pyrazin-2-yl-phenyl)-acetamide], the IC50 stood at 131 nM. The figure for `O=C(Cc1ccc(-c2ccccn2)cc1)Nc1ccn(Cc2ccc(F)cc2)n1` [Example 82, N-[1-(4-Fluoro-benzyl)-1H-pyrazol-3-yl]-2-(4-pyridin-2-yl-phenyl)-acetamide] is 33 nM; for `O=C(Cc1ccc(-c2cccnc2)cc1)Nc1ccn(Cc2ccc(F)cc2)n1` [Example 83, N-[1-(4-Fluoro-benzyl)-1H-pyrazol-3-yl]-2-(4-pyridin-3-yl-phenyl)-acetamide] it is 26 nM. On to `O=C(Cc1ccc(-c2ccncc2)cc1)Nc1ccn(Cc2ccc(F)cc2)n1` [Example 84, N-[1-(4-Fluoro-benzyl)-1H-pyrazol-3-yl]-2-(4-pyridin-4-yl-phenyl)-acetamide], for which the IC50 is 18 nM. To `O=C(Cc1ccc(-c2ncccn2)cc1)Nc1ccn(Cc2ccc(F)cc2)n1` [Example 85, N-[1-(4-Fluoro-benzyl)-1H-pyrazol-3-yl]-2-(4-pyrimidin-2-yl-phenyl)-acetamide] belongs 301 nM. For the compound `O=C(Cc1ccc(-c2cncnc2)cc1)Nc1ccn(Cc2ccc(F)cc2)n1` [Example 86, N-[1-(4-Fluoro-benzyl)-1H-pyrazol-3-yl]-2-(4-pyrimidin-5-yl-phenyl)-acetamide], the IC50 is 140 nM. To `O=C(Cc1ccc(-c2ccncn2)cc1)Nc1ccn(Cc2ccc(F)cc2)n1` [Example 87, N-[1-(4-Fluoro-benzyl)-1H-pyrazol-3-yl]-2-(4-pyrimidin-4-yl-phenyl)-acetamide] belongs 157 nM; to `CC(C)c1ccc(CC(=O)Nc2ccn(Cc3ccc(F)c(F)c3)n2)cn1` [Example 88, N-[1-(3,4-Difluoro-benzyl)-1H-pyrazol-3-yl]-2-(6-isopropyl-pyridin-3-yl)-acetamide], 109 nM; to `N#Cc1ccc(Cn2ccc(NC(=O)Cc3ccc(N4CC[C@@H](F)C4)cc3)n2)nc1` [Example 89, N-[1-(5-Cyano-pyridin-2-ylmethyl)-1H-pyrazol-3-yl]-2-[4-((R)-3-fluoro-pyrrolidin-1-yl)-phenyl]-acetamide], 61 nM. For `N#Cc1ccc(Cn2ccc(NC(=O)Cc3ccc(N4CC[C@H](F)C4)cc3)n2)nc1` [Example 90, N-[1-(5-Cyano-pyridin-2-ylmethyl)-1H-pyrazol-3-yl]-2-[4-((S)-3-fluoro-pyrrolidin-1-yl)-phenyl]-acetamide], the IC50 stood at 75 nM.

Consider `N#Cc1ccc(Cn2ccc(NC(=O)Cc3ccc(N4CCC(F)(F)C4)cc3)n2)nc1` [Example 91, N-[1-(5-Cyano-pyridin-2-ylmethyl)-1H-pyrazol-3-yl]-2-[4-(3,3-difluoro-pyrrolidin-1-yl)-phenyl]-acetamide], for which the IC50 is 23 nM. To `Cc1cncnc1-c1ccc(CC(=O)Nc2ccn(Cc3ccc(F)cc3)n2)cc1` [Example 92, N-[1-(4-Fluoro-benzyl)-1H-pyrazol-3-yl]-2-[4-(5-methyl-pyrimidin-4-yl)-phenyl]-acetamide] belongs 48 nM; to `CC(C)c1ccc(CC(=O)Nc2ccn(Cc3ccc(OCC(F)(F)F)cn3)n2)cc1` [Example 93, 2-(4-Isopropyl-phenyl)-N-{1-[5-(2,2,2-trifluoro-ethoxy)-pyridin-2-ylmethyl]-1H-pyrazol-3-yl}-acetamide], 39 nM; to `CC(C)c1ccc(CC(=O)Nc2ccn(Cc3ccc(Br)cn3)n2)cc1` [Example 94, N-[1-(5-Bromo-pyridin-2-ylmethyl)-1H-pyrazol-3-yl]-2-(4-isopropyl-phenyl)-acetamide], 8.3 nM. To `O=C(Cc1cnc(OCC(F)(F)F)c(F)c1)Nc1ccn(Cc2ccc(F)c(F)c2)n1` [Example 95, N-[1-(3,4-Difluoro-benzyl)-1H-pyrazol-3-yl]-2-[5-fluoro-6-(2,2,2-trifluoro-ethoxy)-pyridin-3-yl]-acetamide] belongs 99 nM; to `CC(C)c1ccc(CC(=O)Nc2ccn(Cc3ccc(C4CC4)cn3)n2)cc1` [Example 96, N-[1-(5-Cyclopropyl-pyridin-2-ylmethyl)-1H-pyrazol-3-yl]-2-(4-isopropyl-phenyl)-acetamide], 53 nM; to `Cc1ccc(Cn2ccc(NC(=O)Cc3ccc(C(C)C)cc3)n2)nc1` [Example 97, 2-(4-Isopropyl-phenyl)-N-[1-(5-methyl-pyridin-2-ylmethyl)-1H-pyrazol-3-yl]-acetamide], 31 nM. To `CC(C)Cc1ccc(Cn2ccc(NC(=O)Cc3ccc(C(C)C)cc3)n2)nc1` [Example 98, N-[1-(5-Isobutyl-pyridin-2-ylmethyl)-1H-pyrazol-3-yl]-2-(4-isopropyl-phenyl)-acetamide] belongs 38 nM; to `O=C(Cc1ccc(N2CCC2)nc1)Nc1ccn(Cc2ccc(F)c(F)c2)n1` [Example 99, 2-(6-Azetidin-1-yl-pyridin-3-yl)-N-[1-(3,4-difluoro-benzyl)-1H-pyrazol-3-yl]-acetamide], 48 nM; to `CCc1ccc(Cn2ccc(NC(=O)Cc3ccc(C(C)C)cc3)n2)nc1` [Example 100, N-[1-(5-Ethyl-pyridin-2-ylmethyl)-1H-pyrazol-3-yl]-2-(4-isopropyl-phenyl)-acetamide], 60 nM. With `COc1ccc(Cn2ccc(NC(=O)Cc3ccc(N4CCC4)nc3)n2)cc1` [Example 101, 2-(6-Azetidin-1-yl-pyridin-3-yl)-N-[1-(4-methoxy-benzyl)-1H-pyrazol-3-yl]-acetamide], the IC50 was 925 nM.
